As a reminder, the inhibition is the drop in the measured response relative to a control, in per cent. Read a low inhibition as little suppression.

Each structure is given as a SMILES string.

Assay [1] concerns the target Oligo-1,6-glucosidase IMA1 (Saccharomyces cerevisiae S288c) (UniProt P53051). Put plainly: Inhibition of yeast alpha-glucosidase at 1000 uM.
For the next assay, the system named is Canavalia ensiformis. In words: Inhibition of jack beans alpha-mannosidase at 1000 uM.
A further assay has as its system Helix pomatia. Put plainly: Inhibition of snail beta-mannosidase at 1000 uM.
For assay [2], the target named is T1, Alpha-glucosidase (Aspergillus niger) (UniProt P56526).
T1 sequence (whole entry): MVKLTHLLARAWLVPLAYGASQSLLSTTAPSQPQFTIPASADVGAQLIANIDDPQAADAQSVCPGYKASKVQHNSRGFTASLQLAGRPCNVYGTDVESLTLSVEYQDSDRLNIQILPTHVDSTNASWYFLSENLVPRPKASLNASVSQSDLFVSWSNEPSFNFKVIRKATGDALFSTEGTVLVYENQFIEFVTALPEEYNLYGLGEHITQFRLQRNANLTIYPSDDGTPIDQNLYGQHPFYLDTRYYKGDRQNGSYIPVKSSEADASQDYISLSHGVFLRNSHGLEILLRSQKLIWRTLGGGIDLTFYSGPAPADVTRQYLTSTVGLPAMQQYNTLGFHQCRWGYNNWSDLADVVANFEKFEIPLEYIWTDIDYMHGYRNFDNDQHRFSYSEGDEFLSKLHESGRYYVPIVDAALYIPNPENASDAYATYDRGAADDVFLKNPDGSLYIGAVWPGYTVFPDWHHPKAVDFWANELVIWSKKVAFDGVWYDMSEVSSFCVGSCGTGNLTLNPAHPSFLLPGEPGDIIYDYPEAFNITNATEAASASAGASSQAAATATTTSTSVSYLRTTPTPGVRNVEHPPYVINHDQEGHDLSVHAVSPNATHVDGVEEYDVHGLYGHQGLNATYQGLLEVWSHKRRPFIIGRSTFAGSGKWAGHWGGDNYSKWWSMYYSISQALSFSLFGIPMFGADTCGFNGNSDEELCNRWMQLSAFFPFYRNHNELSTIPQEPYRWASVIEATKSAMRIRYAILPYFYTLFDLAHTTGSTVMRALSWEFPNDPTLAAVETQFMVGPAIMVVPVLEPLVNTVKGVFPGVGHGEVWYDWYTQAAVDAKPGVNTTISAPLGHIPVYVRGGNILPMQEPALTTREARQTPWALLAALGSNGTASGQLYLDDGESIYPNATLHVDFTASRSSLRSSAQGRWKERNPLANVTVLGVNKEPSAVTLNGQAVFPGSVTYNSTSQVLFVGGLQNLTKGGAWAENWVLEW
Put plainly: Inhibition of Aspergillus niger alpha-glucosidase at 1000 uM.

In assay [3] the test system is Aspergillus niger. In words: Inhibition of Aspergillus niger beta-glucosidase at 1000 uM.
Assay [4] has as its target T2, Beta-glucuronidase (Bos taurus) (UniProt A3KMY8).
T2 sequence (whole entry): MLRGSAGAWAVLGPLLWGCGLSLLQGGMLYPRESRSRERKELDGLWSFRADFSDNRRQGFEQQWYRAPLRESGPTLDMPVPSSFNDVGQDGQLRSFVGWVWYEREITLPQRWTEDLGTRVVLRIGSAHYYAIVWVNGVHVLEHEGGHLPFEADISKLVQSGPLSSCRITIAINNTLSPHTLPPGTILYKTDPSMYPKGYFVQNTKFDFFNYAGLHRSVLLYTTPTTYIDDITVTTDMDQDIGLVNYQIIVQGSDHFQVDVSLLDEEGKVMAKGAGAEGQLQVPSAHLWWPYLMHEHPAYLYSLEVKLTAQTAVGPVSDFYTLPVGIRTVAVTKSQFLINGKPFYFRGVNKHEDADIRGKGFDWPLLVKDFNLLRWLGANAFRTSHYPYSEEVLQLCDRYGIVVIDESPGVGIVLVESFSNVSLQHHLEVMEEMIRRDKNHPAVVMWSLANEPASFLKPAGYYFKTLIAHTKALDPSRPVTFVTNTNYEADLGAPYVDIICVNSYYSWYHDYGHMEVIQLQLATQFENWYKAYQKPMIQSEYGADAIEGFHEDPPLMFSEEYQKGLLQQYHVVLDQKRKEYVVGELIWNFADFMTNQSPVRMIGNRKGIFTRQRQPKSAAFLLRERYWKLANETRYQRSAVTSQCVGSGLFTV
Put plainly: Inhibition of bovine liver beta-glucuronidase at 1000 uM.

Assay [5] deals with Alpha-galactosidase (Coffea arabica) (UniProt Q42656). In words: Inhibition of coffee bean alpha-galactosidase at 1000 uM.
Another assay concerns Rhizopus. In words: Inhibition of Rhizopus sp. amyloglucosidase at 1000 uM.
Assay [6] addresses T3, Uncharacterized protein (Sus scrofa) (UniProt I3LIR5).
T3 sequence (whole entry): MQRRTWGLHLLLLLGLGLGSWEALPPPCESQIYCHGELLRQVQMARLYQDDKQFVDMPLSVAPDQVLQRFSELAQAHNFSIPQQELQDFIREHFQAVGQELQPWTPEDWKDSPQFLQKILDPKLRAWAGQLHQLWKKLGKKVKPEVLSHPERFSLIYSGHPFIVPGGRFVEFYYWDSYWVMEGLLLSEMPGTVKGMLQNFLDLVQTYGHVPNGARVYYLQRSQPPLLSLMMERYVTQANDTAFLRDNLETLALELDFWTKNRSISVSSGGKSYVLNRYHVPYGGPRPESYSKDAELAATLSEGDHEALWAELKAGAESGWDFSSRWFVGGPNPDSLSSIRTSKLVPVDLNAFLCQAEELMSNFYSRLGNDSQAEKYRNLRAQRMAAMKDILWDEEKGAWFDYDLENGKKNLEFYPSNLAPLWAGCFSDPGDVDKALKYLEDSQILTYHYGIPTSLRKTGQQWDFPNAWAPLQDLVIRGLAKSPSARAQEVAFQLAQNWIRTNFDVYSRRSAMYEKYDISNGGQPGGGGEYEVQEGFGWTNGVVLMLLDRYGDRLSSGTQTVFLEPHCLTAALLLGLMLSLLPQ
Put plainly: Inhibition of pig kidney alpha, alpha trehalase at 1000 uM.

Another assay has as its system Oryza sativa. In words: Inhibition of rice alpha-glucosidase at 1000 uM.
The test system of a further assay is Prunus dulcis. Put plainly: Inhibition of almond beta-glucosidase at 1000 uM.
Assay [7] deals with Aspergillus niger. Put plainly: Inhibition of Aspergillus niger amyloglucosidase at 1000 uM.
The next assay is filed under the species Rattus norvegicus. Put plainly: Inhibition of rat intestinal maltase alpha-glucosidase at 1000 uM.

Chain of Alpha-galactosidase (Coffea arabica) (Q42656 16-378 limits assumed): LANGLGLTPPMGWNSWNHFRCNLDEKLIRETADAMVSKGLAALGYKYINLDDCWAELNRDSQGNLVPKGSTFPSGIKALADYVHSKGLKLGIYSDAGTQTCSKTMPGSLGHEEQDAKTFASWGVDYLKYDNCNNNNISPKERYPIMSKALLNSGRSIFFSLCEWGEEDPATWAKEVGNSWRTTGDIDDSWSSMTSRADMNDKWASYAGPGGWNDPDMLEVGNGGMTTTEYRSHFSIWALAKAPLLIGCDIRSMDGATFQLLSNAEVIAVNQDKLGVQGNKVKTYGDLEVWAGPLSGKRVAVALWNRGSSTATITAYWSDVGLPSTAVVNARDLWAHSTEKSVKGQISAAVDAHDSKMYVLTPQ
Chain of Oligo-1,6-glucosidase IMA1 (Saccharomyces cerevisiae S288c) (P53051 whole entry): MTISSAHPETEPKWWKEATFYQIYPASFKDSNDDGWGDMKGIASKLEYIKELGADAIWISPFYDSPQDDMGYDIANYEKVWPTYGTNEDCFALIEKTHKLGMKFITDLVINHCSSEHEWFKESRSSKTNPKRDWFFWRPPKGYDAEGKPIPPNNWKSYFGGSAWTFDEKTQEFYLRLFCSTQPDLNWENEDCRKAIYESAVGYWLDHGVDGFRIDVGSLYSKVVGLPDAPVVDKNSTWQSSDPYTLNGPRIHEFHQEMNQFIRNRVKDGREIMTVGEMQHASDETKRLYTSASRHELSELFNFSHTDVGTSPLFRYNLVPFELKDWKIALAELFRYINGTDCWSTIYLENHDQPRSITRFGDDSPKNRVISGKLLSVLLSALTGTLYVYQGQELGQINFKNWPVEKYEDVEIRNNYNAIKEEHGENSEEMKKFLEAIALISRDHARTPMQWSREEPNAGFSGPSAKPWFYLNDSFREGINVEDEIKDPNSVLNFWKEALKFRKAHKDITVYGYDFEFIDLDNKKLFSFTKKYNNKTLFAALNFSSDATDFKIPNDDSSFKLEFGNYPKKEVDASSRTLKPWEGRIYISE

For `CC[C@@H]1N[C@@H](CO)[C@@H](O)[C@H](O)[C@H]1O`, the inhibition in assay [1] came to 0%; with Canavalia ensiformis, 0%; in the assay with Helix pomatia it was 0%; in assay [2], 6.1%; with Aspergillus niger [3], 0%; in [4], 0.8%. In addition, the inhibition was 0.6% in assay [5]; 0% with Rhizopus; 6% in assay [6]; 0% in the assay with Oryza sativa; 33.5% with Prunus dulcis; 0% in the assay with Aspergillus niger [7]. Besides, the inhibition in the assay listed under Rattus norvegicus is 0%.
In the case of `CCC[C@@H]1N[C@@H](CO)[C@@H](O)[C@H](O)[C@H]1O`, the inhibition came out at 40% in assay [1]; 5.1% with Canavalia ensiformis; 1.3% in the assay on Helix pomatia; 1.4% in assay [2]; 0% with Aspergillus niger [3]; 0% in assay [4]. Also, the inhibition in [5] is 10.4%; with Rhizopus, 0%; in assay [6], 0%; with Oryza sativa it was 0%; in the assay with Prunus dulcis, 42.6%; in the assay with Aspergillus niger [7] it was 0%. This molecule had an inhibition in the assay listed under Rattus norvegicus of 0%.
`CC[C@H]1N[C@@H](CO)[C@@H](O)[C@H](O)[C@H]1O`: the inhibition worked out at 9% in assay [1]; 5.1% in the assay on Canavalia ensiformis; 0% with Helix pomatia; 0% in assay [2]; 0% in the assay on Aspergillus niger [3]; 0% in assay [4]. Also, the inhibition in assay [5] turned out to be 8.7%; with Rhizopus it was 0%; in assay [6] it was 0%; in the assay with Oryza sativa, 0%; in the assay on Prunus dulcis, 16.9%; in the assay with Aspergillus niger [7], 1.9%. The inhibition in the assay filed under Rattus norvegicus was 3.3%.
As to `CC[C@@H]1NC[C@@H](O)[C@@H](O)[C@H](O)[C@H]1O`, the inhibition stood at 23.5% in assay [1]; 11% in the assay with Canavalia ensiformis; 0% with Helix pomatia; 0.2% in assay [2]; 0% with Aspergillus niger [3]; 0.1% in assay [4]. In addition, the inhibition in assay [5] was 7.5%; in the assay on Rhizopus it was 0%; in assay [6], 0%; in the assay with Oryza sativa, 0%; in the assay on Prunus dulcis, 48.7%; in the assay with Aspergillus niger [7] it was 0%. Also, the inhibition in the assay listed under Rattus norvegicus was determined as 13.7%.
In the case of `CC[C@H]1NC[C@@H](O)[C@@H](O)[C@H](O)[C@H]1O`, the inhibition in assay [1] is 0%; in the assay with Canavalia ensiformis, 0%; with Helix pomatia it was 0%; in [2], 0%; in the assay with Aspergillus niger [3], 0%; in assay [4] it was 0.1%. Besides, the inhibition was determined as 1.2% in assay [5]; 0% with Rhizopus; 3.9% in assay [6]; 1% with Oryza sativa; 5.1% in the assay with Prunus dulcis; 0.8% with Aspergillus niger [7]. The molecule further gave an inhibition in the assay filed under Rattus norvegicus of 0%.
For the molecule `CC[C@@H]1N[C@H](CC)[C@H](O)[C@@H](O)[C@@H]1O`, the inhibition in assay [1] came to 2%; with Canavalia ensiformis, 0.4%; with Helix pomatia, 0.3%; in [2] it was 0%; in the assay with Aspergillus niger [3], 0%; in [4], 0.5%. The inhibition was determined as 3.7% in [5]; 3.4% with Rhizopus; 4.9% in [6]; 1.7% with Oryza sativa; 21.4% in the assay on Prunus dulcis; 4.1% in the assay with Aspergillus niger [7]. Moreover, the inhibition in the assay filed under Rattus norvegicus turned out to be 0%.

These data come from ChEMBL document CHEMBL2406948, “Skeletal rearrangement of seven-membered iminosugars: synthesis of (-)-adenophorine, (-)-1-epi-adenophorine and derivatives and evaluation as glycosidase inhibitors” (Bioorg Med Chem, 2013).
